This note sets out measurements from patent publication US6686382B2, “Sulfonamides and derivatives thereof that modulate the activity of endothelin” (Encysive Pharmaceuticals Inc., priority 1999, dated 2004).

One data set concerns the target T1, CYP2C9 (Homo sapiens, UniProt P11712).
T1 construct: purchased Gentest Corporation P258
The experiment in a line: Cytochrome P450 enzyme assay, CYP2C9 (Gentest Supersomes, fluorometric). The format is in vitro ADME. The conditions noted are these: human recombinant enzyme, mean IC50; read-out: CP450 2C9 IC50. As to the method:
(§1) In vitro assays to determine the concentration of the compounds provided herein required for 50% inhibition of substrate metabolism (IC50) by different human cytochrome P450 enzymes (2C9, 2C19, 3A4) were conducted using human recombinant cytochrome P450 enzyme assays, developed by Gentest Corporation. These assays contain Gentest Supersomes™ (specific human cytochrome P450 enzyme, co-expressed with P450 reductase and cytochrome b5), a NADPH regenerating system, substrate and a concentration range of the compounds provided herein. The fluorescent product was the measured end point for these assays. IC50s were calculated using a four-parameter logistic equation with the bottom fixed at 0% inhibition and the top fixed at 100% inhibition. (Values are the mean IC50±SD when n is greater than 1.)
(§2) Assays were conducted in 96-well microtiter plates using fluorometric assays developed by Gentest Corporation. The 12 wells in each row were used for one inhibition curve. Wells 1 to 8 contained serial 1:3 dilutions of the test compound. Wells 9 to 12 contained no inhibitor and wells 11 and 12 were blanks for background fluorescence (stop solution was added before the enzyme). All concentration curves were performed in duplicate. Incubations were initiated by the addition of enzyme and substrate to the pre-warmed reaction mixture. After a specific incubation period, the reaction was stopped by the addition of stop solution. Metabolite production per well was determined by measuring fluorescence using a fluorescent plate reader. Detailed experimental procedures for each enzyme are listed below. See, generally, Methodology of a high throughput method for measuring cytochrome P450 inhibition (Gentest Corporation, Technical Bulletin); Crespi, C. L.; Miller, V. P.; and Penman, B. W. (1997) Anal. Biochem. 248:188-190; and Geungerich, F. P. (1997) Adv. Pharm. 43:7-35.
A 0.2 ml/well reaction mixture containing 2 pmol CYP2C9 (P258), 1.3 mM NADP^+, 3.3 mM glucose-6-phosphate, 3.3 mM magnesium chloride, 0.4 U/ml glucose-6-phosphate dehydrogenase and 75 μM 7-methoxy-4-trifluoromethylcoumarin in […] (pH 7.4), was incubated at 37° C. for 45 minutes. Sulfaphenazole, a standard inhibitor of CYP2C9, was serially diluted from the highest concentration of 10 μM and acted as a positive control. […] After incubation, the reaction was stopped by the addition of 75 μl stop solution (80% acetonitrile/20% 0.5 M Tris base) and fluorescence/well was measured using a Spectra Fluor (Tecan) or Cytoflour 2350 (Millipore) fluorescent plate reader. […]
(§3) The “% inhibition” was calculated as follows: [formula]
(§4) Concentration versus % inhibition curves were constructed in Prism (GraphPad, Inc.). The data was analyzed using “Top & Bottom Fixed” routine. […]

A further data set concerns the target T2, CYP3A4 (Homo sapiens, UniProt P08684).
T2 construct: purchased Gentest Corporation P202
The data set is described as follows: Cytochrome P450 enzyme assay, CYP3A4 (Gentest Supersomes, fluorometric). The format is in vitro ADME. The conditions noted are these: human recombinant enzyme, mean IC50; read-out: CP450 3A4 IC50. As to the method:
as §1, §2
A 0.2 ml/well reaction mixture containing 4 pmol CYP3A4 (P202), 1.3 mM NADP^+, 3.3 mM glucose-6-phosphate, 3.3 mM magnesium chloride 0.4 U/ml glucose-6-phosphate dehydrogenase, 0.01% pluronic F68, and 50 μM resorufin benzyl ether in 200 mM potassium phosphate (pH 7.4), was incubated at 37° C. for 30 minutes. Ketoconazole, a standard inhibitor of 3A4, was serially diluted from the highest concentration of 5 μM and acted as a positive control. […] After incubation, the reaction was stopped by the addition of 75 μl stop solution (80% acetonitrile/20% 0.5 M Tris base) and fluorescence/well was measured within 1 hour using a Spectra Fluor (Tecan) fluorescent plate reader. […]
as §3, §4

Data set [1] in a line: Pharmacokinetic properties (oral availability, elimination half-life, Cmax). The format is in vivo. The conditions noted are these: for half-life: blood, read-out: t½ elim. (converted). From the text:
As used herein, bioavailability or oral availability refers to the rate and extent of absorption. Methods for determining bioavailability or oral availability are well known to those of skill in the art. For example, bioavailability or oral availability of any of the compounds described herein can be determined empirically by administration of the compound to an animal, followed by taking blood samples over time and measuring the blood concentration of the compound. In vivo half life (t1/2) is defined as the time it takes for the concentration of the compound in the blood to be reduced by one-half. Estimations of the area under the curve for intravenous administration can be used to estimate the area under the curve for oral administration, yielding bioavailability data. See, e.g., Milo Gibal (1991) Biopharmaceutics and Pharmacology, 4th edition (Lea and Sediger).

Each structure is given as a SMILES string.

T2 sequence (P08684 2-503 limits assumed): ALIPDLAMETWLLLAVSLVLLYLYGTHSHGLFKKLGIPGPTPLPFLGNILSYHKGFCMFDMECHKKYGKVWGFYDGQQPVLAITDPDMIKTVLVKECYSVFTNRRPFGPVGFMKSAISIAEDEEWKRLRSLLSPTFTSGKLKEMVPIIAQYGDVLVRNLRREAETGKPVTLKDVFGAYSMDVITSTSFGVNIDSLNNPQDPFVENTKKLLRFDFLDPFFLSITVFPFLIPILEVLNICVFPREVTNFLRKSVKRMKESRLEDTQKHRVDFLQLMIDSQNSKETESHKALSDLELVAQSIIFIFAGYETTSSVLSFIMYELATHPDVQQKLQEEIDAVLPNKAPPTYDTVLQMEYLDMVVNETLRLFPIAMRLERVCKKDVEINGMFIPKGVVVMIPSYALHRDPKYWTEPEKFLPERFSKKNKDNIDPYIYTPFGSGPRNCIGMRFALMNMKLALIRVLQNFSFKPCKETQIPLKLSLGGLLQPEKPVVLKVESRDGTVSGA
T1 sequence (P11712 whole entry): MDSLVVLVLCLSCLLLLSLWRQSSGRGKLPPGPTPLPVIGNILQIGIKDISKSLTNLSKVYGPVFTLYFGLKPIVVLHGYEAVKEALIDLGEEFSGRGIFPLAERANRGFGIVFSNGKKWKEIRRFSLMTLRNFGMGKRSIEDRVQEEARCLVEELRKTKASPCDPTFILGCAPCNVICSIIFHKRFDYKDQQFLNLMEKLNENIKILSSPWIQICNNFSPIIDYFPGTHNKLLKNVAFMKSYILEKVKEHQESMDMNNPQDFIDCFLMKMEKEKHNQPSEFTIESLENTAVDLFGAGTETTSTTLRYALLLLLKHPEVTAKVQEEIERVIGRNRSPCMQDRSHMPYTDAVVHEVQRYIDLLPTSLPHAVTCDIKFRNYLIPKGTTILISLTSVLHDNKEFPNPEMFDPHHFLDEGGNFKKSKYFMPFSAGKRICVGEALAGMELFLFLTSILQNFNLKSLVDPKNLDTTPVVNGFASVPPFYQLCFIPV

Turning to `CC(=O)c1cc(C)cc(C)c1NC(=O)c1sccc1S(=O)(=O)Nc1onc(C)c1C` [Compound 7, N-(2-acetyl-4,6-dimethylphenyl)-3-{[(3,4 dimethyl-5-isoxazolyl)amino]sulfonyl}-2-thiophenecarboxamide], the IC50 (commonly the concentration that gives 50% inhibition) at CYP2C9 turned out to be 7600 nM. Moreover, the IC50 at CYP3A4 was 28 µM. In data set [1], the half-life is 360 min. Besides, in data set [1] (in vivo), the peak level (Cmax) was 157 µg/mL and the “Oral Availability” value came to 148.1%.

Turning to `Cc1cc(C)c(NC(=O)c2sccc2S(=O)(=O)Nc2onc(C)c2Cl)c(Cl)c1` [Compound 34, N-(2-chloro-4,6-dimethylphenyl)-3-{[(4-chloro-3-methyl-5-isoxazolyl)amino]sulfonyl}2-thiophenecarboxamide], the values for the half-inhibitory concentration (IC50) on CYP2C9 and at CYP3A4 were 560 nM and 3.86 µM, respectively. Besides, the half-life in data set [1] was 156 min. In addition, the peak concentration (Cmax) – broadly, the peak of the concentration-time curve – in data set [1] (in vivo) stood at 49.5 µg/mL.

With `Cc1cc(C)c(NC(=O)c2sccc2S(=O)(=O)Nc2onc(C)c2Cl)c(S(C)(=O)=O)c1` [Compound 42, 3-{[(4-chloro-3-methyl-5-isoxazolyl)amino]sulfonyl)-N-[2,4-dimethyl-6-(methylsulfonyl)phenyl]-2-thiophenecarboxamide], the IC50 on CYP2C9 is 5300 nM; on CYP3A4 it was 13.7 µM. For the same compound, the half-life in data set [1] was 90 min. The compound further had a peak concentration (Cmax) in data set [1] (in vivo) of 10.3 µg/mL.

For the compound `Cc1cc2c(cc1CC(=O)c1sccc1S(=O)(=O)Nc1onc(C)c1Cl)OCO2` [N-(4-chloro-3-methyl-5-isoxazolyl)-2-{[3,4-(methylenedioxy)-6-methylphenyl)acetyl]-thiophene-3-sulfonamide, reference compound], the IC50 at CYP2C9 is 30 nM. The half-maximal inhibitory concentration (IC50) on CYP3A4 is 0.09 µM. Besides, in data set [1] (in vivo), the concentration peaked (Cmax) at 133 µg/mL, the t½ elim. worked out at 4.5 h and the “Oral Availability” value is 43.6%.
